# Earlier results in PubChem BioAssay AID1259409 (Chemical Carcinogenesis Research Information System (CCRIS), 2018).
# System: rodent chemically induced tumor inhibition, incidence and multiplicity
# Experiment: CCRIS tumor inhibitor studies
# Conditions: Dose [Inhibitor]: 0, Route [Inhibitor]: ORAL, Species: MOUSE, Dose [Carcinogen]: 6 MG/KG ONCE
compound,measurement,setting,value
CC1=C[C@H]2O[C@@H]3[C@H](O)[C@@H](O)[C@](C)([C@@]2(CO)[C@H](O)C1=O)[C@]31CO1,"tumour outcome (control, treated, inhibition, significance)","6 PPM IN DIET BEGINNING 6 WK POST CARCINOGEN DOSE AND CONTINUING FOR 65 WK (STUDY DURATION: 65 WK), Strain/Sex: B6C3F1/FEMALE, Target Tissue: Type of Lesion: LIVER: TUMOR, Promoter: NONE USED","8/26 (31%), 3/15 (20%), 35%, not significant"
same,"tumour outcome (control, treated, inhibition, significance)","6 PPM IN PELLET DIET FOR 1 YR BEGINNING 7 WK POST CARCINOGEN (STUDY DURATION: 60 WK), Strain/Sex: B6C3F1/FEMALE, Target Tissue: Type of Lesion: LIVER: HEPATOCELLULAR ADENOMA","6/26 (23%), 1/15 (7%), 70%, not calculated"
same,"tumour outcome (control, treated, inhibition, significance)","6 PPM IN PELLET DIET FOR 1 YR BEGINNING 7 WK POST CARCINOGEN (STUDY DURATION: 60 WK), Strain/Sex: B6C3F1/FEMALE, Target Tissue: Type of Lesion: LIVER: HEPATOCELLULAR TUMOR","8/26 (31%), 3/15 (20%), 35%, not significant"
same,"tumour outcome (control, treated, inhibition, significance)","12 PPM IN DIET BEGINNING 6 WK POST CARCINOGEN DOSE AND CONTINUING FOR 65 WK (STUDY DURATION: 65 WK), Strain/Sex: B6C3F1/FEMALE, Target Tissue: Type of Lesion: LIVER: TUMOR, Promoter: NONE USED","8/26 (31%), 0/19 (0%), 100%, p<0.01"
same,"tumour outcome (control, treated, inhibition, significance)","12 PPM IN DIET BEGINNING 6 WK POST CARCINOGEN DOSE AND CONTINUING FOR 65 WK (STUDY DURATION: 65 WK), Strain/Sex: B6C3F1/MALE, Target Tissue: Type of Lesion: LIVER: TUMOR, Promoter: NONE USED","19/19 (100%), 18/18 (100%), 0%, not significant"
same,"tumour outcome (control, treated, inhibition, significance)","12 PPM IN DIET FOR 1 YR BEGINNING 7 WK POST CARCINOGEN (STUDY DURATION: 60 WK), Strain/Sex: B6C3F1/MALE, Target Tissue: Type of Lesion: LIVER: HEPATOCELLULAR CARCINOMA","17/19 (89%), 15/18 (83%), 7%, not calculated"
same,"tumour outcome (control, treated, inhibition, significance)","12 PPM IN PELLET DIET FOR 1 YR BEGINNING 7 WK POST CARCINOGEN (STUDY DURATION : 60 WK), Strain/Sex: B6C3F1/FEMALE, Target Tissue: Type of Lesion: LIVER: HEPATOCELLULAR ADENOMA","6/26 (23%), 0/19 (0%), 100%, not calculated"
same,"tumour outcome (control, treated, inhibition, significance)","12 PPM IN PELLET DIET FOR 1 YR BEGINNING 7 WK POST CARCINOGEN (STUDY DURATION : 60 WK), Strain/Sex: B6C3F1/FEMALE, Target Tissue: Type of Lesion: LIVER: HEPATOCELLULAR CARCINOMA","1/26 (4%), 0/19 (0%), 100%, not calculated"
same,"tumour outcome (control, treated, inhibition, significance)","12 PPM IN PELLET DIET FOR 1 YR BEGINNING 7 WK POST CARCINOGEN (STUDY DURATION : 60 WK), Strain/Sex: B6C3F1/FEMALE, Target Tissue: Type of Lesion: LIVER: HEPATOCELLULAR TUMOR","8/26 (31%), 0/19 (0%), 100%, p<0.01"
same,"tumour outcome (control, treated, inhibition, significance)","12 PPM IN PELLET FOR 1 YR BEGINNING 7 WK POST CARCINOGEN (STUDY DURATION: 60 WK), Strain/Sex: B6C3F1/MALE, Target Tissue: Type of Lesion: LIVER: HEPATOCELLULAR TUMOR","19/19 (100%), 18/18 (100%), 0%, not significant"
